According to ChEMBL document CHEMBL1201862, “PubChem BioAssay data set” (2004):
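Method: 48-hour compound exposure of cells in 96-well plates, five concentrations, linear interpolation of endpoints. GI50 marks 50% less growth.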 The source made the active and inactive calls. No stated cut-off is given here; in the data, active = GI50 up to about 1.1 µM and inactive = higher.

Tests used:
Assay in all cases: NCI anticancer screen, dose series, 48 h
SK-MEL-5 = test system: SK-MEL-5
MDA-MB-435 = test system: MDA-MB-435
SK-OV-3 = test system: SK-OV-3
UO-31 = test system: UO-31
KM12 = test system: KM12
Malme-3M = test system: Malme-3M
MOLT-4 = test system: MOLT-4
MDA-MB-231 = test system: MDA-MB-231
SF-295 = test system: SF-295
BT-549 = test system: BT-549
OVCAR-8 = test system: OVCAR-8
RPMI-8226 = test system: RPMI-8226
DU-145 = test system: DU-145
NCI-H226 = test system: NCI-H226
A549 = test system: A549
NCI-H23 = test system: NCI-H23
SF-268 = test system: SF-268
LOX IMVI = test system: LOX IMVI
PC-3 = test system: PC-3
K562 = test system: K562
SNB-19 = test system: SNB-19
SK-MEL-2 = test system: SK-MEL-2
OVCAR-5 = test system: OVCAR-5
TK-10 = test system: TK-10
A498 = test system: A498
SW-620 = test system: SW-620
Hs-578T = test system: Hs-578T
ACHN = test system: ACHN
786-0 = test system: 786-0
UACC-257 = test system: UACC-257
NCI-H522 = test system: NCI-H522
HCT-116 = test system: HCT-116
CCRF-CEM = test system: CCRF-CEM
HCC 2998 = test system: HCC 2998
HL-60 = test system: HL-60
SF-539 = test system: SF-539
IGROV-1 = test system: IGROV-1
OVCAR-4 = test system: OVCAR-4
HOP-62 = test system: HOP-62
EKVX = test system: EKVX
RXF 393 = test system: RXF 393
CAKI-1 = test system: CAKI-1
T47D = test system: T47D
MCF7 = test system: MCF7
UACC-62 = test system: UACC-62
SNB-75 = test system: SNB-75
U-251 = test system: U-251
NCI-H460 = test system: NCI-H460
SN12C = test system: SN12C
OVCAR-3 = test system: OVCAR-3
COLO 205 = test system: COLO 205
HOP-92 = test system: HOP-92
HT-29 = test system: HT-29
M14 = test system: M14
NCI/ADR-RES = test system: NCI/ADR-RES
MDA-N = test system: MDA-N
HCT-15 = test system: HCT-15
SK-MEL-28 = test system: SK-MEL-28

SMILES: NCC1CCN(c2nc3ccccc3c3c2CCCC3)CC1
- GI50 (SK-MEL-5): 2.96 µM (inactive)
- GI50 (MDA-MB-435): 2.41 µM (inactive)
- GI50 (SK-OV-3): 14.7 µM (inactive)
- GI50 (UO-31): 5.6 µM (inactive)
- GI50 (KM12): 4.28 µM (inactive)
- GI50 (Malme-3M): 13.2 µM (inactive)
- GI50 (MOLT-4): 3.59 µM (inactive)
- GI50 (MDA-MB-231): 5.57 µM (inactive)
- GI50 (SF-295): 12.9 µM (inactive)
- GI50 (BT-549): 14.2 µM (inactive)
- GI50 (OVCAR-8): 17.2 µM (inactive)
- GI50 (RPMI-8226): 2.31 µM (inactive)
- GI50 (DU-145): 13.1 µM (inactive)
- GI50 (NCI-H226): 16.7 µM (inactive)
- GI50 (A549): 11.2 µM (inactive)
- GI50 (NCI-H23): 15.5 µM (inactive)
- GI50 (SF-268): 2.78 µM (inactive)
- GI50 (LOX IMVI): 4.81 µM (inactive)
- GI50 (PC-3): 8.93 µM (inactive)
- GI50 (K562): 2.54 µM (inactive)
- GI50 (SNB-19): 10.4 µM (inactive)
- GI50 (SK-MEL-2): 5.73 µM (inactive)
- GI50 (OVCAR-5): 11.9 µM (inactive)
- GI50 (TK-10): 12.9 µM (inactive)
- GI50 (A498): 12.4 µM (inactive)
- GI50 (SW-620): 2.86 µM (inactive)
- GI50 (Hs-578T): 20.1 µM (inactive)
- GI50 (ACHN): 12.6 µM (inactive)
- GI50 (786-0): 4.23 µM (inactive)
- GI50 (UACC-257): 2.68 µM (inactive)
- GI50 (NCI-H522): 6.22 µM (inactive)
- GI50 (HCT-116): 3.07 µM (inactive)
- GI50 (CCRF-CEM): 2.87 µM (inactive)
- GI50 (HCC 2998): 1.9 µM (inactive)
- GI50 (HL-60): 2.84 µM (inactive)
- GI50 (SF-539): 4.65 µM (inactive)
- GI50 (IGROV-1): 8.85 µM (inactive)
- GI50 (OVCAR-4): 10.5 µM (inactive)
- GI50 (HOP-62): 14.7 µM (inactive)
- GI50 (EKVX): 11.8 µM (inactive)
- GI50 (RXF 393): 2.75 µM (inactive)
- GI50 (CAKI-1): 8.61 µM (inactive)
- GI50 (T47D): 2.28 µM (inactive)
- GI50 (MCF7): 4.86 µM (inactive)
- GI50 (UACC-62): 2.29 µM (inactive)
- GI50 (SNB-75): 4.21 µM (inactive)
- GI50 (U-251): 5.35 µM (inactive)
- GI50 (NCI-H460): 5.06 µM (inactive)
- GI50 (SN12C): 9.55 µM (inactive)
- GI50 (OVCAR-3): 9.75 µM (inactive)
- GI50 (COLO 205): 1.61 µM (inactive)
- GI50 (HOP-92): 9.04 µM (inactive)
- GI50 (HT-29): 2.42 µM (inactive)
- GI50 (M14): 1.92 µM (inactive)
- GI50 (NCI/ADR-RES): 12.9 µM (inactive)
- GI50 (MDA-N): 2.71 µM (inactive)
- GI50 (HCT-15): 4.16 µM
- GI50 (SK-MEL-28): 5.15 µM (inactive)
